Test results: the NIST ThermoML archive (doi:10.1016/j.fluid.2010.10.028)

Test: xn = mol fraction of the nth substance listed
Details: Liquid, Vibrating tube method

CC(C)=O [acetone] + CCCCCCC
Details	mass density [kg/m3]
367.48 K, 69840 kPa, x1 = 0.8992	761.04
367.48 K, 74790 kPa, x1 = 0.7024	736.93
367.48 K, 74820 kPa, x1 = 0.4	764.83
367.48 K, 74820 kPa, x1 = 0.8992	764.83
367.48 K, 74880 kPa, x1 = 0.611	727.57
367.48 K, 79790 kPa, x1 = 0.4	768.48
367.48 K, 79790 kPa, x1 = 0.8992	768.48
367.48 K, 84760 kPa, x1 = 0.7024	743.91
367.48 K, 84780 kPa, x1 = 0.4	772.02
367.48 K, 84780 kPa, x1 = 0.8992	772.02
367.48 K, 84860 kPa, x1 = 0.611	734.42
367.48 K, 89740 kPa, x1 = 0.4	775.41
367.48 K, 89740 kPa, x1 = 0.8992	775.41
367.48 K, 89840 kPa, x1 = 0.611	737.67
367.48 K, 94810 kPa, x1 = 0.611	740.81
367.48 K, 99700 kPa, x1 = 0.4	781.91
367.48 K, 99700 kPa, x1 = 0.8992	781.91
367.48 K, 104670 kPa, x1 = 0.4	785.01
367.48 K, 104670 kPa, x1 = 0.8992	785.01
367.48 K, 104780 kPa, x1 = 0.611	746.78
367.48 K, 109630 kPa, x1 = 0.4	788.01
367.48 K, 109630 kPa, x1 = 0.8992	788.01
367.48 K, 114860 kPa, x1 = 0.611	752.48
367.48 K, 119560 kPa, x1 = 0.4	793.8
367.48 K, 119560 kPa, x1 = 0.8992	793.8
367.48 K, 119860 kPa, x1 = 0.611	755.19
367.48 K, 124530 kPa, x1 = 0.4	796.59
367.48 K, 124530 kPa, x1 = 0.8992	796.59
367.48 K, 129810 kPa, x1 = 0.4	799.46
367.48 K, 129810 kPa, x1 = 0.8992	799.46
367.49 K, 1150 kPa, x1 = 0.492	636.24
367.49 K, 1160 kPa, x1 = 0.801	665.36
367.49 K, 1370 kPa, x1 = 0.4	680.97
367.49 K, 1370 kPa, x1 = 0.8992	680.97
367.49 K, 4860 kPa, x1 = 0.801	672.53
367.49 K, 4870 kPa, x1 = 0.492	643.34
367.49 K, 4870 kPa, x1 = 0.611	651.91
367.49 K, 9840 kPa, x1 = 0.801	681.17
367.49 K, 9860 kPa, x1 = 0.492	651.84
367.49 K, 14860 kPa, x1 = 0.801	688.96
367.49 K, 14870 kPa, x1 = 0.492	659.41
367.49 K, 14880 kPa, x1 = 0.611	668.22
367.49 K, 19850 kPa, x1 = 0.801	696.01
367.49 K, 19860 kPa, x1 = 0.492	666.25
367.49 K, 24850 kPa, x1 = 0.801	702.51
367.49 K, 29860 kPa, x1 = 0.801	708.54
367.49 K, 34850 kPa, x1 = 0.492	683.77
367.49 K, 34860 kPa, x1 = 0.801	714.16
367.49 K, 34950 kPa, x1 = 0.4	729.18
367.49 K, 34950 kPa, x1 = 0.8992	729.18
367.49 K, 39860 kPa, x1 = 0.611	698.15
367.49 K, 44850 kPa, x1 = 0.492	693.62
367.49 K, 54840 kPa, x1 = 0.801	733.6
367.49 K, 59920 kPa, x1 = 0.611	716.21
367.49 K, 69900 kPa, x1 = 0.611	723.93
367.49 K, 79870 kPa, x1 = 0.611	731.07
367.49 K, 94730 kPa, x1 = 0.4	778.72
367.49 K, 94730 kPa, x1 = 0.8992	778.72
367.49 K, 99800 kPa, x1 = 0.611	743.84
367.49 K, 99840 kPa, x1 = 0.492	733.62
367.49 K, 104810 kPa, x1 = 0.492	736.49
367.49 K, 109800 kPa, x1 = 0.492	739.28
367.49 K, 109850 kPa, x1 = 0.611	749.68
367.49 K, 114600 kPa, x1 = 0.4	790.95
367.49 K, 114600 kPa, x1 = 0.8992	790.95
367.49 K, 114760 kPa, x1 = 0.492	742
367.49 K, 119830 kPa, x1 = 0.492	744.68
367.49 K, 124840 kPa, x1 = 0.492	747.26
367.49 K, 124860 kPa, x1 = 0.611	757.81
367.49 K, 129850 kPa, x1 = 0.492	749.77
367.49 K, 129850 kPa, x1 = 0.611	760.39
367.5 K, 24850 kPa, x1 = 0.492	672.52
367.5 K, 29850 kPa, x1 = 0.492	678.35
367.5 K, 39850 kPa, x1 = 0.801	719.44
367.5 K, 39860 kPa, x1 = 0.492	688.84
367.5 K, 44870 kPa, x1 = 0.801	724.43
367.5 K, 49850 kPa, x1 = 0.492	698.13
367.5 K, 49850 kPa, x1 = 0.801	729.14
367.5 K, 54850 kPa, x1 = 0.492	702.41
367.5 K, 59830 kPa, x1 = 0.801	737.85
367.5 K, 59870 kPa, x1 = 0.492	706.5
367.5 K, 64830 kPa, x1 = 0.492	710.35
367.5 K, 64930 kPa, x1 = 0.801	742.02
367.5 K, 69830 kPa, x1 = 0.492	714.07
367.5 K, 69910 kPa, x1 = 0.801	745.93
367.5 K, 74910 kPa, x1 = 0.801	749.67
367.5 K, 74930 kPa, x1 = 0.492	717.72
367.5 K, 79900 kPa, x1 = 0.801	753.27
367.5 K, 79920 kPa, x1 = 0.492	721.13
367.5 K, 84870 kPa, x1 = 0.801	756.74
367.5 K, 84880 kPa, x1 = 0.492	724.42
